In paper PMC12300325, “Antimicrobial and Anti-Inflammatory Activity of N-(2-Bromo-phenyl)-2-hydroxy-benzamide Derivatives and Their Inclusion Complexes” (Pharmaceutics, 2025):
Read-outs that look alike come from different tables or passages of the source.

Molecular target: trypsin (Sus scrofa, UniProt P00761)
Assay: casein digestion protease inhibition assay, absorbance at […] nm
Format: biochemical
[1] = read-out: IC50 (mg/mL) * (converted)

Chain of trypsin (P00761 9-231): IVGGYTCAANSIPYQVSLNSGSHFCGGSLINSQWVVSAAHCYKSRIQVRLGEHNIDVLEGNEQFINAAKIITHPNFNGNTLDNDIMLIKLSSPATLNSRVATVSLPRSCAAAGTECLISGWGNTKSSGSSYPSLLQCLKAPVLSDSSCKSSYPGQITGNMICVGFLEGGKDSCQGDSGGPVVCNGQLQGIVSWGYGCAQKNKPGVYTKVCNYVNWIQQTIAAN

Row | IC50 [1] | SMILES | IC50
1 | 115 µM | CCOC(=O)COc1ccccc1C(=O)Nc1ccccc1Br [EE, [2-(2-bromophenylcarbamoyl)phenoxy]acetic acid ethyl ester] | –
2 | – | CC(=O)Oc1ccccc1C(=O)O [acetylsalicylic acid, reference compound] | 2250 µM
3 | 171 µM | NNC(=O)COc1ccccc1C(=O)Nc1ccccc1Br [HD, N-(2-bromo-phenyl)-2-hydrazinocarbonylmethoxy-benzamide] | –
4 | 102 µM | O=C(COc1ccccc1C(=O)Nc1ccccc1Br)NN=Cc1cc(Br)ccc1O [HN, 2-(5-bromo-2-hydroxy-benzylidene-hydrazinocarbonylmethoxy)-N-(2-bromo-phenyl)-benzamide] | –
